Test results as given in US20100305120A1, “COMPOUNDS FOR TREATING MUSCULAR DYSTROPHY” (BIOMARIN IGA LIMITED, priority 2008, published 2010).

Tested on: Utrophin A promoter linked to a luciferase reporter gene
Assay: Luciferase reporter assay (murine H2K cells), H2K/mdx/Utro A reporter cell line
Assay type: cell-based
Conditions: 48 h, mdx mouse H2K Utrophin A reporter cells, read-out: Activity (luciferase level relative to control); for activity at 10 µM: test compound concentration 10 μM; for activity at 3 µM: test compound concentration 3 μM
Experimental: Luciferase Reporter Assay (Murine H2K Cells)
The cell line used for the screen is an immortalized mdx mouse H2K cell line that has been stably transfected with a plasmid containing ≈5 kb fragment of the Utrophin A promoter including the first untranslated exon linked to a luciferase reporter gene.
Under conditions of low temperature and interferon containing media, the cells remain as myoblasts. These are plated into 96 well plates and cultured in the presence of compound for three days. The level of luciferase is then determined by cell lysis and reading of the light output from the expressed luciferase gene utilising a plate luminometer.
Luciferase Assay for 96 Well Plates
The H2K/mdx/Utro A reporter cell line cells were plated out into 96 well plates (Falcon 353296, white opaque) at a density of approximately 5000 cells/well in 190 μl normal growth medium. The plates were then incubated at 33° C. in the presence of 10% CO2 for 24 hrs.
Compounds were dosed by adding 10 μl of diluted compound to each well giving a final concentration of 10 μM (where a different final concentration was required, the amount of compound solution added was amended accordingly). The plates were then incubated for a further 48 hrs. Cells were then lysed in situ following the manufacture's protocols (Promega Steady-Glo Luciferase Assay System(E2520). Then counted for 10 seconds using a plate luminometer (Victor1420).
Compounds for screening were stored at −20° C. as 10 mM stocks in 100% DMSO until required.
Biological activity as assessed using the luciferase reporter assay in murine H2K cells, and the results are shown in Table 1, which also lists the concentration of the test compound solution in μM.

Compound	activity at 10 µM	also measured
COc1cccc(OCc2ccc(Cn3nc(NC(=O)Nc4ccccc4OC(F)(F)F)c4ccccc43)cc2)c1 [Compound 68, 1-(1-(4-((3-methoxyphenoxy)methyl)benzyl)-1H-indazol-3-yl)-3-(2-(trifluoromethoxy)phenyl)urea]	< 200%	
O=C(Nc1ccc(N2CCCCC2)cc1)c1nn(Cc2ccc(-c3ccccc3)cc2)c2ccccc12 [Compound 69, 1-(biphenyl-4-ylmethyl)-N-(4-(piperidin-1-yl)phenyl)-1H-indazole-3-carboxamide]	< 200%	
CC(C)(C)c1ccc(Cn2nc(C(=O)Nc3ccc(OC(F)(F)F)cc3)c3ccccc32)cc1 [Compound 70, 1-(4-tert-butylbenzyl)-N-(4-(trifluoromethoxy)phenyl)-1H-indazole-3-carboxamide]	< 200%	
O=C(Nc1nccs1)c1nn(CCOc2ccccc2)c2ccccc12 [Compound 71, 1-(2-phenoxyethyl)-N-(thiazol-2-yl)-1H-indazole-3-carboxamide]	< 200%	
O=C(NCC1CCCO1)c1nn(Cc2ccc(C(=O)N3CCOCC3)cc2)c2ccccc12 (centres unmarked) [Compound 72, 1-(4-(morpholine-4-carbonyl)benzyl)-N-((tetrahydrofuran-2-yl)methyl)-1H-indazole-3-carboxamide]	< 200%	
COc1ccc(CCNC(=O)Nc2nn(Cc3ccc(C(F)(F)F)cc3)c3ccccc23)cc1OC [Compound 73, 1-(3,4-dimethoxyphenethyl)-3-(1-(4-(trifluoromethyl)benzyl)-1H-indazol-3-yl)urea]	< 200%	
COc1ccc(NC(=O)c2nn(Cc3ccc(-c4ccccc4)cc3)c3ccccc23)cc1 [Compound 74, 1-(biphenyl-4-ylmethyl)-N-(4-methoxyphenyl)-1H-indazole-3-carboxamide]	< 200%	
O=C(Nc1ccc(N2CCCCC2)cc1)c1nn(CCOc2ccccc2)c2ccccc12 [Compound 75, 1-(2-phenoxyethyl)-N-(4-(piperidin-1-yl)phenyl)-1H-indazole-3-carboxamide]	201 to 300%	
C#CCN(C)S(=O)(=O)c1ccc(Cn2nc(C(=O)Nc3ccc(C(N)=O)cc3)c3ccccc32)cc1 [Compound 76, N-(4-carbamoylphenyl)-1-(4-(N-methyl-N-(prop-2-ynyl)sulfamoyl)benzyl)-1H-indazole-3-carboxamide]	< 200%	
CS(=O)(=O)c1ccc(Cn2nc(C(=O)Nc3ccccn3)c3ccccc32)cc1 [Compound 77, 1-(4-(methylsulfonyl)benzyl)-N-(pyridin-2-yl)-1H-indazole-3-carboxamide]	< 200%	
COc1ccccc1CNC(=O)Nc1nn(Cc2cc3c(cc2Cl)OCO3)c2ccccc12 [Compound 78, 1-(1-((6-chlorobenzo[d][1,3]dioxol-5-yl)methyl)-1H-indazol-3-yl)-3-(2-methoxybenzyl)urea]	< 200%	
CC(C)(C)c1ccc(Cn2nc(C(=O)Nc3ccc(N4CCCCC4)cc3)c3ccccc32)cc1 [Compound 79, 1-(4-tert-butylbenzyl)-N-(4-(piperidin-1-yl)phenyl)-1H-indazole-3-carboxamide]	< 200%	
COc1ccc(CCNC(=O)Nc2nn(Cc3ccc(COc4cccc(OC)c4)cc3)c3ccccc23)cc1 [Compound 80, 1-(4-methoxyphenethyl)-3-(1-(4-((3-methoxyphenoxy)methyl)benzyl)-1H-indazol-3-yl)urea]	< 200%	
CC(C)(C)c1ccc(NC(=O)c2nn(Cc3ccc(S(C)(=O)=O)cc3)c3ccccc23)cc1 [Compound 81, N-(4-tert-butylphenyl)-1-(4-(methylsulfonyl)benzyl)-1H-indazole-3-carboxamide]	< 200%	
COc1ccc(NC(=O)c2nn(Cc3ccc(S(C)(=O)=O)cc3)c3ccccc23)cc1OC [Compound 82, N-(3,4-dimethoxyphenyl)-1-(4-(methylsulfonyl)benzyl)-1H-indazole-3-carboxamide]	< 200%	
CS(=O)(=O)c1ccc(Cn2nc(C(=O)Nc3ccccc3)c3ccccc32)cc1 [Compound 83, N-phenyl-1-(4-(methylsulfonyl)benzyl)-1H-indazole-3-carboxamide]	< 200%	
CCc1ccc(NC(=O)c2nn(Cc3ccc(S(C)(=O)=O)cc3)c3ccccc23)cc1 [Compound 84, N-(4-ethylphenyl)-1-(4-(methylsulfonyl)benzyl)-1H-indazole-3-carboxamide]	301 to 400%	
CC(C)c1ccccc1NC(=O)c1nn(Cc2ccc(S(C)(=O)=O)cc2)c2ccccc12 [Compound 85, N-(2-isopropylphenyl)-1-(4-(methylsulfonyl)benzyl)-1H-indazole-3-carboxamide]	< 200%	

Compound	activity at 10 µM	also measured
COc1cccc(NC(=O)c2nn(Cc3ccc(S(C)(=O)=O)cc3)c3ccccc23)c1 [Compound 86, N-(3-methoxyphenyl)-1-(4-(methylsulfonyl)benzyl)-1H-indazole-3-carboxamide]	< 200%	
O=C(Nc1ccc2c(c1)OCO2)c1nn(Cc2ccccc2)c2ccccc12 [Compound 87, N-(benzo[d][1,3]dioxol-5-yl)-1-benzyl-1H-indazole-3-carboxamide]	< 200%	
CS(=O)(=O)c1ccc(Cn2nc(C(=O)Nc3ccc(O)cc3)c3ccccc32)cc1 [Compound 88, N-(4-hydroxyphenyl)-1-(4-(methylsulfonyl)benzyl)-1H-indazole-3-carboxamide]		activity at 3 µM: < 200%
CS(=O)(=O)c1ccc(Cn2nc(C(=O)Nc3ccc(Cl)cc3)c3ccccc32)cc1 [Compound 89, N-(4-chlorophenyl)-1-(4-(methylsulfonyl)benzyl)-1H-indazole-3-carboxamide]	201 to 300%	
CS(=O)(=O)c1ccc(Cn2nc(CNc3ccc4c(c3)OCO4)c3ccccc32)cc1 [Compound 90, N-((1-(4-(methylsulfonyl)benzyl)-1H-indazol-3-yl)methyl)benzo[d][1,3]dioxol-5-amine]		activity at 0.3 µM (test compound concentration 0.3 μM): < 200%
CC(C)c1ccc(Cn2nc(C(=O)Nc3ccc(S(C)(=O)=O)cc3)c3ccccc32)cc1 [Compound 91, 1-(4-isopropylbenzyl)-N-(4-(methylsulfonyl)phenyl)-1H-indazole-3-carboxamide]	< 200%	
O=C(Nc1ccc2c(c1)OCO2)c1nn(CCc2ccc(C(=O)N3CCOCC3)cc2)c2ccccc12 [Compound 92, N-(benzo[d][1,3]dioxol-5-yl)-1-(4-(morpholine-4-carbonyl)phenethyl)-1H-indazole-3-carboxamide]		activity at 3 µM: < 200%
O=C(Nc1ccc2c(c1)OCO2)c1nn(Cc2ccc(C(=O)N3CCCCC3)cc2)c2ccccc12 [Compound 93, N-(benzo[d][1,3]dioxol-5-yl)-1-(4-(piperidine-1-carbonyl)benzyl)-1H-indazole-3-carboxamide]	< 200%	
CS(=O)(=O)c1ccc(Cn2nc(C(=O)Nc3ccc(F)cc3)c3ccccc32)cc1 [Compound 94, N-(4-fluorophenyl)-1-(4-(methylsulfonyl)benzyl)-1H-indazole-3-carboxamide]	< 200%	
CS(=O)(=O)c1ccc(Cn2nc(-c3nc4ccc(Cl)cc4o3)c3ccccc32)cc1 [Compound 95, 6-chloro-2-(1-(4-(methylsulfonyl)benzyl)-1H-indazol-3-yl)benzo[d]oxazole]	< 200%	
CC(C)c1cccc(NC(=O)c2nn(Cc3ccc(S(C)(=O)=O)cc3)c3ccccc23)c1 [Compound 96, N-(3-isopropylphenyl)-1-(4-(methylsulfonyl)benzyl)-1H-indazole-3-carboxamide]	< 200%	
O=C(Nc1ccc2c(c1)OCO2)c1nn(Cc2ccncc2)c2ccccc12 [Compound 97, N-(benzo[d][1,3]dioxol-5-yl)-1-(pyridin-4-ylmethyl)-1H-indazole-3-carboxamide]	< 200%	
CC(C)c1nsc(NC(=O)c2nn(Cc3ccc(S(C)(=O)=O)cc3)c3ccccc23)n1 [Compound 98, N-(3-isopropyl-1,2,4-thiadiazol-5-yl)-1-(4-(methylsulfonyl)benzyl)-1H-indazole-3-carboxamide]	< 200%	
CS(=O)(=O)c1ccc(Cn2nc(C(=O)Nc3ccc4ncccc4c3)c3ccccc32)cc1 [Compound 99, 1-(4-(methylsulfonyl)benzyl)-N-(quinolin-6-yl)-1H-indazole-3-carboxamide]	201 to 300%	
O=C(Nc1ccc2c(c1)OCO2)c1nn(Cc2cccc(C(=O)N3CCOCC3)c2)c2ccccc12 [Compound 100, N-(benzo[d][1,3]dioxol-5-yl)-1-(3-(morpholine-4-carbonyl)benzyl)-1H-indazole-3-carboxamide]	< 200%	
CS(=O)(=O)c1ccc(Cn2nc(C(=O)Nc3ccc(S(C)(=O)=O)cc3)c3ccccc32)cc1 [Compound 101, 1-(4-(methylsulfonyl)benzyl)-N-(4-(methylsulfonyl)phenyl)-1H-indazole-3-carboxamide]	< 200%	
CS(=O)(=O)c1ccc(Cn2nc(C(=S)Nc3ccc4c(c3)OCO4)c3ccccc32)cc1 [Compound 102, N-(benzo[d][1,3]dioxol-5-yl)-1-(4-(methylsulfonyl)benzyl)-1H-indazole-3-carbothioamide]	201 to 300%	
